Earlier results in patent US7351421B2, “Drug-eluting stent having collagen drug carrier chemically treated with genipin” (priority 1996, dated 2008).
“Also recorded” adds a separate entry of the source. Blank lines part the entries; values can stand above or below the compound they belong to.

Columns and labels:
[1] = test system: 3T3 fibroblasts; conditions: in vitro
[2] = test system: mice
[3] = test system: CHO-K1 cells; conditions: in vitro
[4] = glutaraldehyde used to crosslink materials
[5] = test system: tissue culture
[6] = test system: smooth muscle cell; conditions: in vitro
[7] = test system: intimal proliferation; conditions: de-endothelialized rabbits, in vivo
[8] = test system: intimal proliferative lesion; conditions: in vivo

Compound: COC(=O)C1=CO[C@@H](O)[C@@H]2C(CO)=CC[C@H]12 [Genipin]
cytotoxicity compared with glutaraldehyde [1]: substantially less cytotoxic; also recorded: significantly less cytotoxic
LD50 i.v. [2]: 382 mg/k
clastogenic response (genotoxicity) [3]: does not cause clastogenic response

crosslinking concentration giving persistent foreign-body reaction [4]: above 0.05%
Compound: O=CCCCC=O [glutaraldehyde]
concentration at which cytotoxic [5]: 10-25 ppm
concentration at which cytotoxic in tissue culture ([5]; tissue culture, as low as): ≥ 3 ppm

Compound: cyclosporin A
effect on smooth muscle cell proliferation [6]: did not inhibit
reduction of intimal proliferation [7]: no significant reduction
effect on intimal proliferative lesion following arterial balloon catheterization [8]: inhibition
